Data published in BigSolDB 2.1.

N[C@@H](Cc1c[nH]c2ccccc12)C(=O)O
solubility (mole fraction) (in acetone, 278.15 K): 0.0001 | solubility (mole fraction) (in acetone, 283.15 K): 0.00011 | solubility (mole fraction) (in acetone, 288.15 K): 0.00013 | solubility (mole fraction) (in acetone, 293.15 K): 0.00015 | solubility (mole fraction) (in acetone, 298.15 K): 0.00018 | solubility (mole fraction) (in acetone, 303.15 K): 0.00022 | solubility (mole fraction) (in acetone, 308.15 K): 0.00026 | solubility (mole fraction) (in acetone, 313.15 K): 0.00031 | solubility (mole fraction) (in acetone, 318.15 K): 0.00037 | solubility (mole fraction) (in acetone, 323.15 K): 0.00045 | solubility (mole fraction) (in acetone, 328.15 K): 0.00056 | solubility (mole fraction) (in acetone, 333.15 K): 0.00069 | solubility (mole fraction) (in acetonitrile, 278.15 K): 1e-05 | solubility (mole fraction) (in acetonitrile, 283.15 K): 2e-05 | solubility (mole fraction) (in acetonitrile, 288.15 K): 2e-05 | solubility (mole fraction) (in acetonitrile, 293.15 K): 3e-05 | solubility (mole fraction) (in acetonitrile, 298.15 K): 4e-05 | solubility (mole fraction) (in acetonitrile, 303.15 K): 5e-05 | solubility (mole fraction) (in acetonitrile, 308.15 K): 7e-05 | solubility (mole fraction) (in acetonitrile, 313.15 K): 8e-05 | solubility (mole fraction) (in acetonitrile, 318.15 K): 0.0001 | solubility (mole fraction) (in acetonitrile, 323.15 K): 0.00012 | solubility (mole fraction) (in acetonitrile, 328.15 K): 0.00014 | solubility (mole fraction) (in acetonitrile, 333.15 K): 0.00017 | solubility (mole fraction) (in ethanol, 278.15 K): 0.00012 | solubility (mole fraction) (in ethanol, 283.15 K): 0.00013 | solubility (mole fraction) (in ethanol, 288.15 K): 0.00014 | solubility (mole fraction) (in ethanol, 293.15 K): 0.00017 | solubility (mole fraction) (in ethanol, 298.15 K): 0.0002 | solubility (mole fraction) (in ethanol, 303.15 K): 0.00024 | solubility (mole fraction) (in ethanol, 308.15 K): 0.00028 | solubility (mole fraction) (in ethanol, 313.15 K): 0.00033 | solubility (mole fraction) (in ethanol, 318.15 K): 0.00038 | solubility (mole fraction) (in ethanol, 323.15 K): 0.00044 | solubility (mole fraction) (in ethanol, 328.15 K): 0.0005 | solubility (mole fraction) (in ethanol, 333.15 K): 0.00058 | solubility (mole fraction) (in ethyl acetate, 278.15 K): 4e-05 | solubility (mole fraction) (in ethyl acetate, 283.15 K): 5e-05 | solubility (mole fraction) (in ethyl acetate, 288.15 K): 7e-05 | solubility (mole fraction) (in ethyl acetate, 293.15 K): 9e-05 | solubility (mole fraction) (in ethyl acetate, 298.15 K): 0.00011 | solubility (mole fraction) (in ethyl acetate, 303.15 K): 0.00014 | solubility (mole fraction) (in ethyl acetate, 308.15 K): 0.00018 | solubility (mole fraction) (in ethyl acetate, 313.15 K): 0.00023 | solubility (mole fraction) (in ethyl acetate, 318.15 K): 0.00028 | solubility (mole fraction) (in ethyl acetate, 323.15 K): 0.00034 | solubility (mole fraction) (in ethyl acetate, 328.15 K): 0.00041 | solubility (mole fraction) (in ethyl acetate, 333.15 K): 0.0005 | solubility (mole fraction) (in isopropanol, 278.15 K): 0.00011 | solubility (mole fraction) (in isopropanol, 283.15 K): 0.00012 | solubility (mole fraction) (in isopropanol, 288.15 K): 0.00014 | solubility (mole fraction) (in isopropanol, 293.15 K): 0.00015 | solubility (mole fraction) (in isopropanol, 298.15 K): 0.00018 | solubility (mole fraction) (in isopropanol, 303.15 K): 0.00021 | solubility (mole fraction) (in isopropanol, 308.15 K): 0.00024 | solubility (mole fraction) (in isopropanol, 313.15 K): 0.00028 | solubility (mole fraction) (in isopropanol, 318.15 K): 0.00033 | solubility (mole fraction) (in isopropanol, 323.15 K): 0.00037 | solubility (mole fraction) (in isopropanol, 328.15 K): 0.00043 | solubility (mole fraction) (in isopropanol, 333.15 K): 0.0005 | solubility (mole fraction) (in methanol, 278.15 K): 0.00062 | solubility (mole fraction) (in methanol, 283.15 K): 0.00066 | solubility (mole fraction) (in methanol, 288.15 K): 0.00072 | solubility (mole fraction) (in methanol, 293.15 K): 0.0008 | solubility (mole fraction) (in methanol, 298.15 K): 0.0009 | solubility (mole fraction) (in methanol, 303.15 K): 0.00102 | solubility (mole fraction) (in methanol, 308.15 K): 0.00115 | solubility (mole fraction) (in methanol, 313.15 K): 0.00131 | solubility (mole fraction) (in methanol, 318.15 K): 0.00149 | solubility (mole fraction) (in methanol, 323.15 K): 0.00166 | solubility (mole fraction) (in methanol, 328.15 K): 0.00189 | solubility (mole fraction) (in methanol, 333.15 K): 0.00217 | solubility (mole fraction) (in n-butanol, 278.15 K): 0.0001 | solubility (mole fraction) (in n-butanol, 283.15 K): 0.00011 | solubility (mole fraction) (in n-butanol, 288.15 K): 0.00012 | solubility (mole fraction) (in n-butanol, 293.15 K): 0.00014 | solubility (mole fraction) (in n-butanol, 298.15 K): 0.00017 | solubility (mole fraction) (in n-butanol, 303.15 K): 0.0002 | solubility (mole fraction) (in n-butanol, 308.15 K): 0.00024 | solubility (mole fraction) (in n-butanol, 313.15 K): 0.00028 | solubility (mole fraction) (in n-butanol, 318.15 K): 0.00034 | solubility (mole fraction) (in n-butanol, 323.15 K): 0.0004 | solubility (mole fraction) (in n-butanol, 328.15 K): 0.00049 | solubility (mole fraction) (in n-butanol, 333.15 K): 0.00059 | solubility (mole fraction) (in water, 278.15 K): 0.00098 | solubility (mole fraction) (in water, 283.15 K): 0.00105 | solubility (mole fraction) (in water, 288.15 K): 0.00113 | solubility (mole fraction) (in water, 293.15 K): 0.00124 | solubility (mole fraction) (in water, 298.15 K): 0.00137 | solubility (mole fraction) (in water, 303.15 K): 0.00154 | solubility (mole fraction) (in water, 308.15 K): 0.00174 | solubility (mole fraction) (in water, 313.15 K): 0.00199 | solubility (mole fraction) (in water, 318.15 K): 0.00229 | solubility (mole fraction) (in water, 323.15 K): 0.00261 | solubility (mole fraction) (in water, 328.15 K): 0.00294 | solubility (mole fraction) (in water, 333.15 K): 0.00328
